Compound: N[C@@H]1CCCN(c2c(/C=C3\SC(=O)NC3=O)cccc2-c2ccccc2)C1 [AZD1208] + CCNC(=O)c1noc(-c2cc(C(C)C)c(O)cc2O)c1-c1ccc(CN2CCOCC2)cc1 [Luminespib] (partner 0.01 µM)
Test: relative viability (nuclei count vs DMSO), 5 days (fraction); higher = more cells survive
Conditions: first compound 8 µM
Procedure, shortened: (§1)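 Nuclei were stained with Hoechst during a one-step fixation (final 0.05% Triton X-100, 1% formaldehyde, 1 ug/ml Hoechst) carried out 5 days after dosing, then counted on 4× images. The cells, lung cancer lines in 1536-well plates, had been dosed by pin tool the day after seeding with one drug alone or a fixed anchor-drug dose plus five library-drug doses (not always all listed) in √10 steps. Relative viability is the nuclei count in treated wells divided by that in vehicle wells, and each value is the median of duplicate plates.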

In order of rising relative viability:
1. HCC-15  0.192
2. NCI-H23  0.24
3. NCI-H1755  0.269
4. NCI-H1792  0.284
5. NCI-H2085  0.381
6. NCI-H1355  0.525
7. NCI-H322M  0.88
8. NCI-H1437  1.22

Compound: N[C@@H]1CCCN(c2c(/C=C3\SC(=O)NC3=O)cccc2-c2ccccc2)C1 [AZD1208] + C[C@]1(O)C[C@@H](c2nc(-c3ccc4ccc(-c5ccccc5)nc4c3)c3c(N)nccn32)C1 [Linsitinib] (partner 1 µM)
Test: as above
Conditions: first compound 0.08 µM
Procedure, shortened: as §1

In order of rising relative viability:
1. LCLC-97TM1  0.156
2. NCI-H727  0.29
3. NCI-H23  0.453
4. NCI-H1792  0.474
5. NCI-H441  0.477
6. NCI-H2023  0.651
7. CAL-12T  0.721
8. NCI-H460  0.724
9. SW 1573  0.725
10. NCI-H1734  0.728
11. NCI-H2405  0.8
12. HCC-15  0.811
13. NCI-H1355  0.846
14. NCI-H650  0.877
15. NCI-H520  0.904
16. NCI-H1651  0.912
17. NCI-H2085  0.913
18. NCI-H2347  0.936
19. NCI-H322M  0.954
20. HCC-827  0.965
21. LXF-289  0.982
22. NCI-H1395  0.989
23. NCI-H1755  0.993
24. 201T  1.02
25. NCI-H1437  1.03
26. A-427  1.12
27. NCI-H1915  1.15
28. EPLC-272H  1.31

Same assay, conditions: first compound 0.253 µM

In order of falling relative viability:
1. EPLC-272H  1.17
2. NCI-H1395  1.15
3. CAL-12T  1.13
4. A-427  1.12
5. NCI-H1915  1.09
6. NCI-H1437  1.09
7. NCI-H520  1.07
8. 201T  1.05
9. NCI-H2085  1.04
10. HCC-827  1.03
11. LXF-289  1.01
12. NCI-H1755  0.995
13. NCI-H322M  0.98
14. NCI-H2347  0.94
15. NCI-H1355  0.921
16. HCC-15  0.864
17. NCI-H460  0.843
18. NCI-H650  0.83
19. NCI-H1734  0.807
20. NCI-H2405  0.789
21. NCI-H1792  0.648
22. SW 1573  0.637
23. NCI-H1651  0.619
24. NCI-H441  0.593
25. NCI-H2023  0.56
26. NCI-H23  0.539
27. NCI-H727  0.219
28. LCLC-97TM1  0.206

Same assay, conditions: first compound 0.8 µM

In order of falling relative viability:
1. NCI-H1915  1.06
2. HCC-827  1.01
3. A-427  1
4. EPLC-272H  0.995
5. 201T  0.989
6. NCI-H1395  0.979
7. LXF-289  0.966
8. NCI-H1755  0.913
9. NCI-H2347  0.91
10. NCI-H2085  0.892
11. NCI-H1437  0.887
12. NCI-H322M  0.828
13. NCI-H460  0.817
14. NCI-H520  0.808
15. NCI-H1734  0.795
16. NCI-H650  0.784
17. CAL-12T  0.761
18. NCI-H1651  0.758
19. SW 1573  0.745
20. NCI-H2405  0.737
21. NCI-H1355  0.718
22. HCC-15  0.648
23. NCI-H2023  0.576
24. NCI-H23  0.462
25. NCI-H1792  0.446
26. NCI-H441  0.381
27. NCI-H727  0.264

Same assay, conditions: first compound 2.53 µM

In order of rising relative viability:
1. LCLC-97TM1  0.133
2. NCI-H727  0.259
3. NCI-H23  0.434
4. NCI-H1792  0.439
5. NCI-H650  0.482
6. NCI-H441  0.497
7. NCI-H2023  0.633
8. SW 1573  0.656
9. NCI-H460  0.711
10. NCI-H1355  0.737
11. NCI-H1734  0.791
12. HCC-15  0.793
13. NCI-H520  0.819
14. NCI-H322M  0.829
15. NCI-H1437  0.832
16. NCI-H1651  0.852
17. CAL-12T  0.86
18. NCI-H2405  0.883
19. NCI-H2085  0.939
20. NCI-H2347  0.942
21. NCI-H1755  0.998
22. 201T  1.01
23. HCC-827  1.01
24. LXF-289  1.01
25. NCI-H1395  1.07
26. NCI-H1915  1.1
27. A-427  1.17
28. EPLC-272H  1.21

Same assay, conditions: first compound 8 µM

In order of rising relative viability:
1. LCLC-97TM1  0.132
2. NCI-H727  0.225
3. NCI-H441  0.457
4. SW 1573  0.534
5. NCI-H460  0.539
6. NCI-H2023  0.568
7. NCI-H1734  0.603
8. NCI-H520  0.83
9. NCI-H2405  0.853
10. NCI-H1395  0.881
11. 201T  0.979
12. A-427  1.02
13. NCI-H1915  1.11

From the supplement of paper PMC10307832
